# Laboratory results from ChEMBL document CHEMBL1158475, “Identification of novel falcipain-2 inhibitors as potential antimalarial agents through structure-based virtual screening” (J Med Chem, 2009).
# The source made the active and inactive calls. The calls are words filed in the database; no cut-off is given here.
# Columns and labels:
# [1] = Inhibition of Plasmodium falciparum recombinant falcipain-2 by microtiter plate spectrofluorimetry
# Plasmodium falciparum [2] = test: Inhibition of Plasmodium falciparum recombinant falcipain-2 at 10 uM by microtiter plate spectrofluorimetry
# Plasmodium falciparum [3] = test: Induction of Plasmodium falciparum recombinant falcipain-2 aggregation by pseudonative gel analysis
# Plasmodium falciparum [4] = test: Inhibition of Plasmodium falciparum recombinant falcipain-2 at 10 uM after dialysis in refolding buffer for 8 hrs by SDS-PAGE
# Plasmodium falciparum [5] = test: Binding affinity to Plasmodium falciparum recombinant falcipain-2 by isothermal titration calorimetry
# Plasmodium falciparum [6] = test: Induction of Plasmodium falciparum recombinant falcipain-2 aggregation by FPLC gel filtration chromatography
SMILES,IC50 [1] [µM],inhibition (Plasmodium falciparum [2]) [%],Activity (Plasmodium falciparum [3]),Activity (Plasmodium falciparum [4]),Activity (Plasmodium falciparum [5]),Activity (Plasmodium falciparum [6])
Nc1nnc(SCC(=O)Nc2ccc3nc(SCc4cccc5ccccc45)sc3c2)s1,15,44,–,–,–,–
O=C(CCc1ccc(S(=O)(=O)NCCc2ccccc2)cc1)Nc1ccc2c(c1)OCCO2,54.2,20.3,–,–,–,–
Cc1ccc(NC(=O)CN2C(=O)S/C(=C/c3ccc(-c4ccc(Cl)c(C(=O)O)c4)o3)C2=O)cc1,20,29,–,–,–,–
O=C(COC(=O)c1ccc(S(=O)(=O)c2cccc(S(=O)(=O)N3CCOCC3)c2)cc1)c1ccccc1,20,36.9,–,–,–,–
COc1ccc(C(=O)NNC(=O)CSc2nnc(COc3ccc4ccccc4c3)n2C)cc1,> 50,20.8,–,–,–,–
CC(=O)c1ccc(NC(=O)CSc2nnc(COc3cccc4cccnc34)n2-c2ccccc2)cc1,> 50,21.9,–,–,–,–
C=CCn1c(SCC(=O)Nc2sc3c(c2C(N)=O)CCC3)nc2scc(-c3ccccc3)c2c1=O,2.4,53.1,inactive,inactive,inactive,inactive
O=C(Cn1nnc(-c2ccccc2)n1)N/N=C/c1ccccc1OCc1ccc(Cl)cc1Cl,20,28.9,–,–,–,–
CCc1ccc(OCc2nnc(SCC(=O)Nc3ccc4ccccc4c3)o2)cc1,> 50,21.9,–,–,–,–
COc1cccc(OCC(=O)NC(=S)Nc2cccc(-c3nc4ncccc4o3)c2C)c1,> 50,20.2,–,–,–,–
CCOC(=O)c1ccc(NC(=O)CSc2nnc(-c3ccccc3Br)n2CC)cc1,17.1,38.3,–,–,–,–
O=C(Cc1nnc(NC(=O)c2ccc(Br)cc2)s1)NNC(=O)c1ccc(Br)cc1,> 50,20.2,–,–,–,–
Cc1cc(C)nc(NS(=O)(=O)c2ccc(NC(=S)NC(=O)c3cccnc3)cc2)n1,> 50,20.2,–,–,–,–
Cc1c(Cl)cccc1-c1ccc(/C=N\Nc2nncn2/N=C/c2ccc(-c3cccc(Cl)c3C)o2)o1,6.4,56.5,–,–,–,–
O=C(COc1ccc2ccccc2c1)NCC(=O)N/N=C/c1ccc(-c2ccc(Cl)c(Cl)c2)o1,13.2,48.5,–,–,–,–
CC(=O)c1ccc(-c2ccc(/C=N/Nc3nc(N4CCCCC4)nc(N4CCCCC4)n3)o2)cc1,20,27.9,–,–,–,–
CC(NC(=O)COc1ccc2ccccc2c1)C(=O)N/N=C/c1cccc(Cl)c1Cl (centres undefined),> 50,25.1,–,–,–,–
CC(=O)c1ccc(NC(=O)CSc2nnc(COc3ccc4ccccc4c3)n2-c2ccccc2)cc1,> 50,23.4,–,–,–,–
CC(Sc1nc(-c2ccccc2O)n[nH]1)C(=O)Nc1cccc(Cl)c1 (centres undefined),5.8,71.4,–,–,–,–
COc1cccc(/C=N/NC(=O)c2ccn(Cc3ccc(Cl)cc3Cl)n2)c1O,> 50,21.8,–,–,–,–
CC(C)C[C@H](NC(=O)[C@H]1O[C@@H]1C(=O)O)C(=O)NCCCCN=C(N)N [E-64],0.017,97.4,–,Active,Active,–
O=C(NC(Cc1c[nH]c2ccccc12)C(=O)NCc1ccccc1)Oc1ccccc1 (centres undefined),29.7,29.4,–,–,–,–
CCn1c(CNC(=O)Cc2ccc(OC)cc2)nnc1SCC(=O)Nc1ccc(Cl)c(Cl)c1,20,25.9,–,–,–,–
O=C(COc1cccc(Cl)c1)Nc1nc(-c2ccc(S(=O)(=O)N3CCOCC3)cc2)cs1,20,25.2,–,–,–,–
CCOC(=O)c1c(-c2ccc(-c3ccccc3)cc2)csc1NC(=O)CSc1nnc2sc3ccccc3n12,15,36.6,–,–,–,–
O=C(CN1C(=O)S/C(=C/c2ccc(-c3ccc(Cl)c(C(=O)O)c3)o2)C1=O)Nc1ccc2c(c1)OCO2,10.9,41.4,–,–,–,–
O=C(CSc1nnc(SCC(=O)Nc2ccc(Cl)cc2)s1)Nc1ccc(Cl)cc1,20,28.2,–,–,–,–
COc1cc(NS(=O)(=O)c2ccc(NC(=O)c3cc(-c4cccc(C)c4)nc4ccccc34)cc2)ncn1,20,26.9,–,–,–,–
Cc1cccc(OCC(=O)Nc2nc(-c3ccc(S(=O)(=O)N4CCOCC4)cc3)cs2)c1,> 50,21.3,–,–,–,–
